Assay results published in PubChem BioAssay AID1645864 (Buhrlage Lab, Dana-Farber Cancer Institute and Novartis …, 2021).
Active and inactive are the calls of the source.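 Rule for the calls: active = maximal inhibition of USP17 at or above 30% in the confirmation dose-response, a value not among the printed readouts; inactive = the rest.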

Each compound was assayed against Ubiquitin carboxyl-terminal hydrolase 17-like protein 5 (Homo sapiens) (UniProt A8MUK1) (assay: ubiquitin-specific protease 17 DUB inhibitors, concentration-effect assay, cell-free, verification of initial screening actives (AID 1645864)). Details: purified USP17, ubiquitin-rhodamine cleavage fluorescence, 3 h.
Sequence of Ubiquitin carboxyl-terminal hydrolase 17-like protein 5 (Homo sapiens) (A8MUK1 whole entry, looked up): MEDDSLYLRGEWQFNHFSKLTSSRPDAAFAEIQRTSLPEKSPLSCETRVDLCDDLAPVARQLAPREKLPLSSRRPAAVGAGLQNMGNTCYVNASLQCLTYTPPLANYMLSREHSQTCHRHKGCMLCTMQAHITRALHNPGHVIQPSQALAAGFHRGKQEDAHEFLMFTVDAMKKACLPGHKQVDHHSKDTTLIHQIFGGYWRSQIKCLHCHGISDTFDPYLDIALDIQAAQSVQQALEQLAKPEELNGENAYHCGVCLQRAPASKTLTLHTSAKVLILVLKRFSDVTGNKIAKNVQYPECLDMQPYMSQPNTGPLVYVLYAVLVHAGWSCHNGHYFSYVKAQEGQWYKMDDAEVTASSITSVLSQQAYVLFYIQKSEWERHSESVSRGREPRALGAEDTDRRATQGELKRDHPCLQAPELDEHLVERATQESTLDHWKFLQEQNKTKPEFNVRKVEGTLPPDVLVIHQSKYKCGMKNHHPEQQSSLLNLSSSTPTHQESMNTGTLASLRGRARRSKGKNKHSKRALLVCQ
Work on CC(=O)N1CCc2cc(S(=O)(=O)NCCC(=O)Nc3cccc(C)c3C)ccc21 yielded an IC50 of 23.7 µM. In the case of Cn1c(=O)c2c(ncn2CC(=O)NC2CCCc3ccccc32)n(C)c1=O (stereo not given), the IC50 is reported as > 50 µM (inactive). With O=C(c1ccc2cc[nH]c2c1)N1CCC(Nc2cccnc2)C1 (stereo not given) the IC50 was > 50 µM (inactive). For O=C(Cc1c[nH]c2ccccc12)Nc1nc2ccccc2s1, the IC50 was > 50 µM (inactive). In the case of O=S(=O)(c1ccccc1)N1CCN2Cc3ccccc3N(Cc3ccccc3)CC2C1 (stereo not given), the IC50 is reported as > 50 µM (inactive). For Nc1c(C(=O)c2cccs2)oc2nc(-c3ccccc3)cc(-c3ccco3)c12, the IC50 was > 50 µM (inactive). Cc1ccccc1OCCSc1nc2ccccc2n1CC(=O)NC1CC1 was tested, and the IC50 was 22.8 µM. With COc1cc2c(oc(=O)c3cc(C)cc(OC)c32)c2c([C@@H]3OC(C)[C@@H](O)[C@@](C)(O)C3O)ccc(O)c12 (stereo not given in full) the IC50 was 24.4 µM. In the case of N#Cc1ccc(NC(=O)Nc2cccn(Cc3ccccc3F)c2=O)cc1, the IC50 is reported as 6.33 µM. Cc1ccc(C2c3cccn3CCN2C(=O)Nc2ccccc2)cc1 (stereo not given) was tested, and the IC50 was > 50 µM (inactive). Compound COc1ccc(NS(=O)(=O)c2ccc(NC(=O)Nc3ccc(Cl)cc3)cc2)cc1 has an IC50 of 23.9 µM. CCOc1ccccc1NC(=O)Cn1c(=O)n(CCCC(=O)NCc2ccc(C)cc2)c(=O)c2sccc21 gave an IC50 of 2.71 µM. In the case of C=C1CCC2[C@](C)(CCC[C@]2(C)C(=O)OC)[C@H]1CCc1ccoc1CNC(C)C (stereo not given in full), the IC50 is reported as > 50 µM (inactive). Nc1ccccc1SCc1noc(-c2cccs2)n1 was tested, and the IC50 was > 50 µM (inactive). For COc1ccc(N2CCN(Cc3nnnn3Cc3ccc4c(c3)OCO4)CC2)cc1, the IC50 was > 50 µM (inactive). For O=C(Nc1ccc2ccccc2n1)c1ccc(Cl)cc1, the IC50 was 2.19 µM. Compound Cn1c(COc2ccccc2)nnc1SCC(=O)Nc1ccc(N2CCOCC2)cc1 has an IC50 of 23.9 µM. In the case of Cc1nc(-c2cccc(NC(=O)C3CCN(c4ccccc4)C3=O)c2)no1 (stereo not given), the IC50 is reported as 37.2 µM. CCN1C(SCc2ccccc2F)=NS(=O)(=O)c2ccccc21 was tested, and the IC50 was > 50 µM (inactive). Compound CN1C(=O)COc2ccc(NC(=O)c3cc(-c4ccccc4)on3)cc21 has an IC50 of 9.45 µM. Work on Cc1sc2ccn(C)c(=O)c2c1C(=O)NC1CCCC1 yielded an IC50 of 3.48 µM. With CCOC(=O)c1ccc(NC(=O)Cn2c(=O)n(CC(=O)NCc3ccco3)c(=O)c3ccccc32)cc1 the IC50 was 2.89 µM. Compound CC(Nc1ncnc2c1sc1nc(N3CCOCC3)c3c(c12)CCC3)c1ccccc1 (stereo not given) has an IC50 of 5.33 µM. COc1cccc2c1OCC(C(=O)NCc1ccc(F)cc1)=C2 was tested, and the IC50 was > 50 µM (inactive). O=C(Cn1c(=O)n(Cc2ccc(F)cc2)c(=O)c2sccc21)Nc1cccc(Cl)c1 showed an IC50 of 7.77 µM. With Cc1ccc(Cn2nnc(C(=O)NCc3ccco3)c2-n2cccc2)cc1 the IC50 was 42.4 µM. Compound O=C(CSc1nc2cc(C(F)(F)F)ccc2s1)NCC(=O)c1ccccc1 has an IC50 of 1.86 µM. CC(=O)c1cccc(NC(=O)c2ccc3[nH]c4c(c3c2)CC(C)CC4)c1 (stereo not given) was tested, and the IC50 was > 50 µM (inactive). Compound N#Cc1ccccc1Cn1c(=O)n(CCCCC(=O)NCc2ccco2)c(=O)c2ccccc21 has an IC50 of 46.3 µM. In the case of Cc1ccc(NC(=O)Cn2c(Nc3cccc(C)c3)nc(C)cc2=O)cc1, the IC50 is reported as 42.1 µM. In the case of Cc1cc(C(=O)Nc2ccc3c(c2)OCCO3)no1, the IC50 is reported as > 50 µM (inactive). For COc1ccccc1-c1nc2c3c(C)c(C)n(-c4ccc(Br)cn4)c3ncn2n1, the IC50 was 0.567 µM. Work on Cc1ccc(NCc2cc3c(C(C)(C)C)nn(-c4ccc(Cl)cc4)c3[nH]c2=O)cc1 yielded an IC50 of 15.7 µM. O=C(Cn1cnc2c(oc3ccccc32)c1=O)NCc1ccccc1Cl showed an IC50 of 14.5 µM. COc1ccc(C2CC(=O)Nc3n[nH]c(-c4ccccc4)c32)cc1OC (stereo not given) gave an IC50 of 29.7 µM. For CCCCCC(=O)N1c2ccccc2NC2=C(C(=O)CC(c3ccc(C(C)(C)C)cc3)C2)C1c1ccncc1 (stereo not given), the IC50 was 4.7 µM. Compound O=C(CSc1nnc(Cn2cnc3ccccc32)o1)Nc1ccc([N+](=O)[O-])cc1 has an IC50 of 21.1 µM. CSc1nc(SCC(N)=O)c2c3c(sc2n1)COC(C)(C)C3 showed an IC50 of 36.9 µM. CCOc1ccc(-c2noc(-c3nn(-c4cccc(OC)c4)ccc3=O)n2)cc1 was tested, and the IC50 was 10 µM. O=C(Nc1ccccc1)C1CCCN(C(=O)c2cc3ccccc3[nH]2)C1 (stereo not given) showed an IC50 of 38.7 µM. COc1ccc(NC(=O)C2Oc3ccc(C)cc3NC2=O)cc1Cl (stereo not given) gave an IC50 of 14.5 µM. In the case of CN(CCc1ccccc1)c1nccc(N2CCN(C(=O)c3csc(-c4cccnc4)n3)CC2)n1, the IC50 is reported as > 50 µM (inactive). Cc1ccc(-c2nc(NC(=O)Nc3ccc(Cl)cc3)sc2C)cc1 gave an IC50 of 19.6 µM. Cc1ccc(-n2nc(C(=O)Nc3ccc(C)cn3)c3ncn(C)c(=O)c32)cc1 showed an IC50 of 2.65 µM. With CS(=O)(=O)N1CCCc2cc(C(=O)Nc3ccc(Oc4ccccc4)cc3)ccc21 the IC50 was > 50 µM (inactive). With CCc1ccc2c(c1)[C@]1(C(=O)N2)[C@@H]2C(=O)N(c3ccc(Cl)cc3Cl)C(=O)[C@@H]2[C@@H]2CCCN21 the IC50 was > 50 µM (inactive). With CC(C(=O)NCc1ccc2c(c1)OCO2)N1CCN(c2ccc(O)cc2)CC1 (stereo not given) the IC50 was 30.1 µM. In the case of Cc1cc(C)n(-c2ccc(C(=O)Nc3cccc(S(=O)(=O)N4CCCC4)c3)cc2)n1, the IC50 is reported as 23 µM. For COc1cccc(NC(=O)c2ccc(-c3csc(C)n3)cc2)c1, the IC50 was > 50 µM (inactive). Compound COc1cc(C)cc2c1C(=O)c1c(cc(O)c(Cl)c1O)C2=O has an IC50 of 1.57 µM.
